Assay results taken from patent US20050090454A1, “Combination of dehydroepiandrosterone or dehydroepiandrosterone-sulfate with an antihistamine for treatment of asthma or chronic obstructive pulmonary disease” (priority 2003, published 2005).
Several values for one entry are separate records, joined by “and”; a condition that tells them apart may be missing. Equal values may be shown once.

Tests used:
[1] = test system: Intracellular adenosine in rat heart, liver, lung and brain; assay: In vivo effect on adenosine levels in rat tissues
Description: Hearts were removed from animals and flash frozen in liquid nitrogen with 10 s of death. Liver and lungs were removed en bloc and flash frozen with 30 s of death. Brain tissue was subsequently dissected.

HT-29 SF cells [2] = assay: DHEA effect on cell cycle distribution (flow cytometry); format: cell-based, human; conditions: 25, 50 or 200 μM, 24-72 hours, time- and dose-dependent
Protocol: Cultures were trypsinized following 0, 24, 48, or 74 hours and fixed and stained using a modification of a procedure of Bauer et al., Cancer Res. 46, 3173-3178 (1986). Briefly, cells were collected by centrifugation and resuspended in cold phosphate-buffered saline. Cells were fixed in 70% ethanol, washed, and resuspended in phosphate-buffered saline.
After 24, 48, and 72 hours, cells were harvested, fixed in ethanol, and stained with propidium iodide, and the DNA content/cell was determined by flow cytometric analysis. The percentage of cells in G1, S, and G2M phases was calculated using the Cellfit cell cycle analysis program. S phase is marked by a quadrangle for clarity. Representative histograms from duplicate determinations are shown. The experiment was repeated three times.

HT-29 SF cells [3] = assay: DHEA effect on cell growth (Coulter counter); conditions: 12.5-200 μM, 24-72 hours
Protocol: Cell cultures, HT-29 SF cells, which represent a subline of HY-29 cells (ATCC, Rockville, Md.) and are adapted for growth in completely defined serum-free PC-1 medium (Ventrex, Portland, Me.), were obtained. Stock cultures were maintained in this medium at 37° C. (in a humidified atmosphere containing 5% CO2).

HT-29 SF cells [4] = assay: Reversal of DHEA effect on cell cycle; format: cell-based, human; conditions: supplement with 25 μM DHEA
[5] = HPLC check of drug degradation during jet milling; format: physicochemical; conditions: HPLC peak area vs unmilled standard, single- and double-pass
Protocol: The chromatographic peak area for the HPLC assay of the unmilled drug standard solution (10 mg/ml) gave a value of 23,427. […] The chromatographic peak areas for vials A and B were 11,979 and 11,677, respectively.

[6] = Solubility of DHEA-S as a function of NaCl and temperature; format: physicochemical; conditions: for Equilibrium constant Ksp=[DHEA-S−][Na+]: slope of solubility vs reciprocal sodium concentration
Description: Inhalation of pure water can produce a cough stimulus. […] The temperature effect is weaker at high NaCl concentrations.

[7] = test system: rat peritoneal mast cells; assay: Histamine secretion after stimulation with compound 48/80; format: cell-based
Protocol: Freshly isolated rat peritoneal mast cells (2×10^5 cells) were pre-incubated for 5 min at 37° C. in a Balanced Salt Solution containing 150 mM NaCl ([…]), 2.7 mM KCl, 0.9 mM CaCl2, 4 mM Na2HPO4, 2.7 mM KH2PO4, 1.75 mg/ml BSA and 0.1 μg/ml compound 48/80. Thereafter, DHEAS or water (control) are added and the mixture is incubated for 2 min at 37° C.
Following incubation, the mixture is cooled to 4° C. then centrifuged at 4500 rpm for 5 min The supernatant is collected and mixed for 30 min at 4° C. with 5% TCA (trichloroacetic acid) to cause protein precipitation. After centrifugation at 9500×g for 15 min, the supernatant is collected and mixed with 0.25 M HCl. Thereafter, the samples are mixed with 2M NaOH and 0.2% OPT (ortho-phtalaldehyde) and incubated for 30 min at 4° C. in darkness, after which time the reaction is stopped by addition of 0.5 M H2SO4.

## Nc1nc(=O)c2c([nH]1)NCC(CNc1ccc(C(=O)N[C@@H](CCC(=O)O)C(=O)O)cc1)N2C=O (mixture of isomers) [Folinic Acid, Folinic acid]
[1]; coadministration with DHEA or methyltestosterone
  Effect on steroid-mediated adenosine depletion: completely abrogated steroid-mediated adenosine depletion
[1]; rat, in vivo
  Effect on adenosine levels: increase in adenosine levels for all organs studied

## C[C@]12CC[C@H](O)CC1=CC[C@@H]1[C@@H]2CC[C@]2(C)C(=O)CC[C@@H]12 [DHEA, 3β-hydroxyandrost-5-en-17-one]
HT-29 SF cells [2]
  Effect on cell cycle: G1 block
HT-29 SF cells [3]
  Effect on cell growth: time- and dose-dependent inhibition of growth

## C[C@@](O)(CCO)CC(=O)O [MVA, mevalonic acid]
HT-29 SF cells [4]; 48 hours
  Prevention of DHEA-induced reduction of cells in S phase: partially prevented
HT-29 SF cells [4]; 72 hours
  Prevention of DHEA-induced reduction of cells in S phase: not after 72 hours

## CC(C)CCC[C@@H](C)[C@H]1CC[C@H]2[C@@H]3CC=C4C[C@@H](O)CC[C@]4(C)[C@H]3CC[C@]12C [CH, cholesterol]
HT-29 SF cells [4]; 48 hours
  Prevention of DHEA-induced reduction of cells in S phase: very little effect
HT-29 SF cells [4]; 72 hours
  Prevention of DHEA-induced reduction of cells in S phase: no effect

## C[C@]12CC[C@H](OS(=O)(=O)[O-])CC1=CC[C@@H]1[C@@H]2CC[C@]2(C)C(=O)CC[C@@H]12.[Na+] [DHEA-S, sodium dehydroepiandrostenone sulfate]
[5]
  Degradation of the drug during jet milling micronization: no detectable degradation
[6]; 15° C., 20 mM Na+, Ksp 1316 mM^2, quadratic formula
  Estimated DHEA-S concentration in solution: 27.5 mM and 10.7 mg/mL
[6]; interpolated versus reciprocal of absolute temperature
  Ksp at 15° C.: ~1316 mM^2
[6]; refrigerated (7-8° C.)
  Equilibrium constant Ksp=[DHEA-S−][Na+]: 665 mM2
[6]; room temperature (24-25° C.)
  Equilibrium constant Ksp=[DHEA-S−][Na+]: 2236 mM2
[7]; at 10^-4 M
  Solubility under the assay conditions: highly limited
[7]; compound 48/80 0.1 μg/ml, 2 min at 37° C., read-out: EC50, inhibition of histamine release
  EC50: 170 nM
